# Source: patent US9944700B2, “Notch2 binding molecules for treating respiratory diseases” (NOVARTIS AG, priority 2013, dated 2018)
# Experiments:
# [1] = test system: Human airway basal cells grown in 3D; assay: IL-13-driven goblet cell metaplasia in 3D bronchospheres, qPCR of cell type markers; type: cell-based
# Procedure: (§1) Human bronchial epithelial (HBE) cells and culture media were obtained from Lonza. Air-liquid interface cultures using passage 2 (P2) cells were performed as previously described (Danahay, H. et al., American journal of physiology. Lung cellular and molecular physiology 282, L226-236 (2002)). For three-dimensional culturing of HBE cells, P1 cells were trypsinized and resuspended (30,000 cells/ml) in HBE differentiation media containing 5% growth factor-reduced Matrigel (BD Biosciences). 20 μl of suspension was plated in each well of a 384-well plate (Greiner) pre-coated with 10 μl of a 25% solution of Matrigel (BD Biosciences) in HBE differentiation media. Wells were fed or treated at day 2 and day 8 of culture by adding 30 μl of differentiation media containing the appropriate treatment. Three-dimensional cultures were analyzed at the time points indicated.
# RNA was isolated from 3D bronchosphere cultures with Trizol (Invitrogen), using manufacturer's specifications. […] Quantitative PCR was performed on a ViiA7 Real-Time PCR System (Applied Biosystems), using 40 ng of cDNA per reaction with the following Taqman probes (Applied Biosystems): MUC5AC, Hs01365601_m1; MUC5B, Hs00861588_m1; FOXA3, Hs00270130_m1; FOXJ1, Hs00230964_m1; DNAI2, Hs01001544_m1; TP63, Hs00978340_m1; ITGA6, Hs01041011_m1; GAPDH, Hs99999905_m1; Muc5ac, Mm012718_m1; Foxj1, Mm012367279_m1; Trp63, Mm00495788_m1; Gapdh, Mm99999915_g1.
# In order to understand if neutralizing Notch2 could prevent goblet cell metaplasia, a hallmark of several airway diseases including asthma, cystic fibrosis, and COPD, anti-Notch2 antibodies were tested for their effect on IL-13-driven goblet cell metaplasia in 3D bronchospheres. Human airway basal cells were grown in 3D in the presence of vehicle control or IgG, with or without 1 ng/ml IL-13, or increasing concentrations of α-N2 D3 or 59R5 antibodies together with 1 ng/ml of IL-13, and analyzed by qPCR for the expression levels of the indicated goblet cell markers (FIG. 5a), ciliated cell markers (FIG. 5b), and basal cell markers (FIG. 5c).
# [2] = test system: IL-13 driven goblet cell metaplasia; assay: IL-13 mouse model, co-administration of anti-Notch2 antibodies; type: in vivo
# Procedure: (§2) RNA was isolated from 3D bronchosphere cultures with Trizol (Invitrogen), using manufacturer's specifications. To isolate RNA from mouse tissue, approximately 20 mg of tissue was placed in a 1.5 ml eppendorf tube with 1 ml of Buffer RLT Plus (Qiagen). A 5 mm stainless steel bead (Qiagen) was added to the tube, and the tissue was sheared using a Tissue Lyser II (Qiagen). RNA from the sheared tissue was purified using the RNeasy Plus Mini Kit (Qiagen), using manufacturer's specifications. TaqMan Reverse Trascription Reagents (Invitrogen) were used to generate cDNA from 1 μg of total RNA. Quantitative PCR was performed on a ViiA7 Real-Time PCR System (Applied Biosystems), using 40 ng of cDNA per reaction with the following Taqman probes (Applied Biosystems): MUC5AC, Hs01365601_m1; MUC5B, Hs00861588_m1; FOXA3, Hs00270130_m1; FOXJ1, Hs00230964_m1; DNAI2, Hs01001544_m1; TP63, Hs00978340_m1; ITGA6, Hs01041011_m1; GAPDH, Hs99999905_m1; Muc5ac, Mm012718_m1; Foxj1, Mm012367279_m1; Trp63, Mm00495788_m1; Gapdh, Mm99999915_g1.
# Female Balb/c mice (20-25 g) were obtained from Charles River (Morgate, UK). Mice were housed under specific pathogen free conditions and were provided with food and water ad libitum. Experiments were performed in accordance with the UK Animals Scientific Procedures Act 1986.
# Mice received 0.5 μg of recombinant mouse IL-13 (Ebiosciences, UK) or phosphate-buffered saline (PBS) intranasally on 3 consecutive (days 1, 2, 3). Mice received either 20 mg/kg neutralizing antibody against Notch2 (α-N2 D3 or α-N2 59R5) or control IgG, or PBS intraperitoneally 2 hours before intranasal challenge with either IL-13 or PBS, on days 1 and 3 only. Mice were euthanized 24 hours after the final IL-13 administration. The left lungs were excised, inflated with 10% neutral buffered formalin (NBF) and preserved in NBF. Lungs were embedded in paraffin wax and lung sections were obtained for each animal. Sections were stained with Periodic Acid-Schiff (PAS) stain for mucus.
# PAS positive staining was quantified in lung sections using Definiens Image Analysis software. Two distinct lung sections were analyzed per mouse and the total area of PAS positive staining within the sections was determined. The PAS positive staining was normalized to the area of tissue analyzed and represented as ‘Relative Area PAS Positive Mucus (%)’.
# Data are expressed as mean±SEM. Statistical significance was determined using a parametric one way ANOVA and Dunnetts post-test. GraphPad Prism (version 5.04) was used to generate graphs and perform statistical analysis. ***p<0.001 denotes statistically significant difference from relevant isotype control group.
# [3] = test system: Human airway basal cells grown in 3D; assay: 3D bronchosphere cultures treated with Notch receptor-specific blocking antibodies, qPCR of cell type markers; type: cell-based
# Procedure: as §1
# as §2, with “Mm99999915_g1. […]” for “Mm99999915_g1.”
# [4] = test system: Human bronchial epithelial (HBE) cells; assay: IL-13-driven goblet cell metaplasia in ALI cultures; type: cell-based; details: ALI cultures (results not shown)
# Procedure: as §1, with “Wells were fed or treated at day 2 and day 8 of culture by adding 30 μl of differentiation media containing the appropriate treatment.” left out
# (§3) Immunofluorescence of HBEC bronchospheres was performed as described previously for MCF10A cysts (Debnath, J. et al., Methods 30, 256-268 (2003) with the following modifications. After incubation with fluorescence-conjugated secondary antibodies, DNA was stained with a 1:1 mix of PBS and ProLong gold antifade containing DAPI. Confocal microscopy was performed at room temperature on a microscope (Zeiss LSM510 Meta) using an EC Plan-Neofluar 10×/0.30 dry objective (Zeiss), an EC Plan-Neofluor 20×/0.5 dry objective (Zeiss), a C-Apochromat 40×/1.2 W corr (Zeiss), or a C-Apochromat 63×/1.2 W Corr objective (Zeiss). […]
# airway basal cells = assay: Air-liquid interface (ALI) cultures of airway basal cells treated with IL-17A; type: cell-based, human; details: IL-17A from day 7 (day 0 at ALI), analysed day 21; FIGS. 3d, 3e
# Procedure: as §1, with “Wells were fed or treated at day 2 and day 8 of culture by adding 30 μl of differentiation media containing the appropriate treatment.” left out
# as §3
# [5] = test system: bronchospheres (human bronchial epithelial cells); assay: Bronchosphere assay of secreted recombinant human proteins, qPCR of cell type markers and immunostaining; type: cell-based
# Procedure: as §1
# Immunofluorescence of HBEC bronchospheres was performed as described previously for MCF10A cysts (Debnath, J. et al., Methods 30, 256-268 (2003) with the following modifications. After incubation with fluorescence-conjugated secondary antibodies, DNA was stained with a 1:1 mix of PBS and ProLong gold antifade containing DAPI. Confocal microscopy was performed at room temperature on a microscope (Zeiss LSM510 Meta) using an EC Plan-Neofluar 10×/0.30 dry objective (Zeiss), an EC Plan-Neofluor 20×/0.5 dry objective (Zeiss), a C-Apochromat 40×/1.2 W corr (Zeiss), or a C-Apochromat 63×/1.2 W Corr objective (Zeiss). Images were collected with Zen confocal software (Zeiss). Scale bars were added, and images were processed using Zen (Zeiss) and Photoshop (Adobe). Air-liquid interface (ALI) cultures were processed for immunofluorescence analysis after 14 days of culture at ALI by rinsing the apical surface of each filter with PBS, and then fixing in 4% paraformaldehyde for 4 hours. Filters were washed with IF buffer (130 mM NaCl, 7 mM Na2HPO4, 3.5 mM NaH2PO4, 7.7 mM NaN3, 0.1% bovine serum albumin, 0.2% Triton X-100, 0.05% Tween-20), blocked with IF wash containing 10% goat serum, and stained with primary antibody in IF wash containing 10% goat serum overnight at 4° C. Secondary antibodies were used at a 1:200 dilution in IF buffer containing 10% goat serum. To quantify the total staining area of ALI cultures, 10×13 images were collected with a plan Neofluar 10×0.3 NA Ph1 objective (EC; Carl Zeiss, Inc.) on a microscope (Axiovert 200; Carl Zeiss, Inc.) equipped with a motorized stage and a camera (Orca-ER-1394; Hamamatsu Photonics) controlled by Axiovision software (Carl Zeiss, Inc.) and used to generate a single composite image using the MOSAIX function in Zeiss Axiovision. Quantification of the total staining area was performed with ImageJ. Two to three regions of each ALI culture were punched out with a 4 mm biopsy punch (Miltex, Inc.) and mounted in ProLong gold antifade containing DAPI for imaging by confocal microscopy on a microscope (Axiovert 200; Carl Zeiss, Inc.) equipped with a motorized stage, a Yokogawa CSU-X1 spinning disc head, and an EMCCD camera (Evolve 512, Photometrics), with a Plan-Apochromat 100×/1.4 Oil DIC objective (Zeiss). Cells positive for MUC5AC, MUC5B, or cilia (acetylated α-Tubulin) staining were counted manually. For time-lapse video microscopy, HBECs were imaged at the indicated times during bronchosphere development at 37° C. with a plan Neofluar 10×0.3 NA Ph1 objective (EC; Carl Zeiss, Inc.). Images were taken every 5 min for the indicated time period. Annotations (time stamp and scale bar) were added and videos were assembled using Axiovision software.
# RNA was isolated from 3D bronchosphere cultures with Trizol (Invitrogen), using manufacturer's specifications. To isolate RNA from mouse tissue, approximately 20 mg of tissue was placed in a 1.5 ml eppendorf tube with 1 ml of Buffer RLT Plus (Qiagen). A 5 mm stainless steel bead (Qiagen) was added to the tube, and the tissue was sheared using a Tissue Lyser II (Qiagen).
Substance,"IL-13-driven goblet cell metaplasia (expression of goblet cell markers MUC5AC, MUC5B and FOX3A) ([1]; 1 ng/ml IL-13, increasing antibody concentrations, qPCR, FIG. 5a)","ciliated cells function (expression of ciliated cell markers FOXJ1 and DNAI2) ([1]; 1 ng/ml IL-13, qPCR, FIG. 5b)","effect on basal cells markers p63 and ITGA6 ([1]; 1 ng/ml IL-13, qPCR, FIG. 5c)","effect on basal cell marker Trp63, qPCR of whole lung tissue ([2]; 20 mg/kg i.p. days 1 and 3, FIG. 6e)","ciliated cell marker Foxj1, qPCR of whole lung tissue ([2]; 20 mg/kg i.p. days 1 and 3, FIG. 6d)","Muc5ac expression levels, qPCR of whole lung tissue RNA ([2]; 20 mg/kg i.p. days 1 and 3, confirms reduced goblet cell metaplasia, FIG. 6c)","IL-13 driven goblet cell metaplasia (PAS staining of lung sections) ([2]; Balb/c mice, 20 mg/kg antibody i.p. 2 hours before intranasal IL-13, days 1 and 3, FIGS. 6a, 6b)",effect on basal cell markers p63 and ITGA6 ([3]; FIG. 4c),"goblet cell formation: expression of goblet cell markers MUC5AC, MUC5B and FOXA3 ([3]; compared with IgG control or anti-Notch1 / anti-Notch3 antibodies, FIG. 4a)","ciliated cell formation: expression of ciliated cells markers FOXJ1 and DNAI2 ([3]; compared with IgG control or anti-Notch1 / anti-Notch3 antibodies, FIG. 4b)",IL-13-driven goblet cell metaplasia [4],goblet cell population (MUC5AC and MUC5B markers) (airway basal cells),number of ciliated cells (α-tubulin marker) (airway basal cells),"change in expression of at least one cell-type marker, initial screen ([5]; 55 proteins tested at 3.3, 10 and 30 ng/mL)","basal cell markers ([5]; IL-17A, qPCR, FIG. 3c)","levels of goblet cell markers (MUC5AC, MUC5B and FOXA3) ([5]; broader range of IL-17A concentrations, qPCR, FIG. 3a)","expression of markers of ciliated cells (FOXJ1 and DNAI2) ([5]; broader range of IL-17A concentrations, qPCR, FIG. 3b)","expression of both of the ciliated cell markers ([5]; markers FOXJ1, DNAI2)","expression of at least two of the goblet cell markers ([5]; markers MUC5AC, MUC5B, FOXA3)","change in expression of at least one of the cell-type markers, on validation ([5]; validation, expanded concentration range)"
"59R5: anti-Notch2 antagonist IgG1 antibody, heavy chain SEQ ID NO: 5, light chain SEQ ID NO: 6",completely inhibited,partially restored,No effect,no effect,concomitant increase,verified this observation,completely blocked,Neither antibody showed any significant effect,decreased,increasing,completely inhibited,–,–,–,–,–,–,–,–,–
"IL-17A: secreted, recombinant human protein; cytokine secreted by Th17 cells",–,–,–,–,–,–,–,–,–,–,–,profound expansion,dramatic reduction,concentration-dependent change,No significant changes,increased levels,inhibiting,attenuated,enhanced,robust change
